The record followed here is US20130131065A1, “TREATMENT OF TYPE 2 DIABETES” (priority 2010, published 2013).

The subject of the assay is Rat pancreatic islets. The experiment in a line: Apoptosis (cytoplasmic nucleosomes, Cell Death Detection ELISA) in cultured rat pancreatic islets with or without cytokine cocktail. It counts as cell-based. The method, then:
Male Wistar rat islets (Elevage Janvier, Le Genest-St-Isle, France) were isolated using collagenase (Serva, Heidelberg, Germany) and cultured in RPMI at 11 mM glucose (Invitrogen, CA, USA) supplemented with 10% FCS (Fetal Calf Serum), 100 Units/ml penicillin, 100 μg/ml streptomycin and 100 μg/ml gentamycin in low-attachment 24-well plates (Corning, N.Y., USA). These islets were incubated with a cocktail of rat cytokines (TNF-alpha, IL-1beta and INF-gamma each at 2 ng/ml) for 24 hours (Brun T. et al., 2004 and 2007). […] Aliquots of the medium were used to measure insulin accumulated during the culture period using immune enzyme assay kits (Brunchwig, Basel, Switzerland). Furthermore, quantification of cytoplasmic nucleosomes, a direct indicator of apoptosis, was performed with the Cell Death Detection ELISA kit (Roche, Basel, Switzerland). Each condition was tested with 50 rat islets in duplicate and four independent experiments were performed. The results are provided as mean+/−sem and statistical analyses were performed using one-way ANOVA with Bonferroni and Dunnett post-hoc tests.
The conditions without cytokines allowed the analysis of the specific effect of the compound on islets while the combination of the drug with cytokines allowed the study of the effect of Imeglimin on islets under an inflammatory stress. To measure cell death in islets, quantification of cytoplasmic nucleosomes in islet cells, a consequence of DNA fragmentation during apoptosis (Robertson et al., 2000), was performed. […] Furthermore, a negative control and a positive control were added to the conditions with and without cytokines to test the effectiveness of the protocol. […] The results of the quantification of cell death for each condition are presented on FIG. 1.

Where [1] appears, read: with cytokines (each 2 ng/ml, 24 hours), Exendin-4 at 10 nM.
Setting [2] is: with cytokines (TNF-alpha, IL-1beta, INF-gamma each 2 ng/ml, 24 hours), compound at 100 μM.
Where [3] appears, read: with cytokines (each 2 ng/ml, 24 hours), compound at 1 mM.

As to Exendin-4 [reference compound], under setting [1], the “drop in apoptosis vs cytokine-stressed islets” value came to 29% and the “drop in apoptosis vs untreated islets” value turned out to be 20%. Besides, the “decrease in cell death (vs untreated islets)” value (without cytokines, Exendin-4 at 10 nM, 24 hours) stood at 16%.
`CC1N=C(N)NC(N(C)C)=N1.Cl` (single isomer, unassigned; (+)) [(+)-2-amino-3,6-dihydro-4-dimethylamino-6-methyl-1,3,5-triazine hydrochloride]: the “protection of the islets from the cytokine stress” value (both doses (100 μM and 1 mM), cytokines each 2 ng/ml, 24 hours) is “completely protected”. Moreover, under setting [2], the “less apoptosis than cytokine-stressed islets” value is 37% and the “less apoptosis than untreated islets” value was determined as 29%. Further, under setting [3], the “protection: less apoptosis than cytokine-stressed islets” value is given as 25% and the “protection: less apoptosis than untreated islets” value is reported as 16%. Besides, the “more potent than Exendin-4 (protective effect)” value (with cytokines, lower concentration tested (100 μM) vs Exendin-4 at 10 nM) is listed as about 50%. For the same compound, the “level of protection relative to the Exendin-4 level” value (without cytokines, compound at 100 μM vs Exendin-4 at 10 nM) is “two thirds”. Moreover, the “less apoptosis than untreated islets” value (without cytokines, compound at 100 μM, 24 hours) was 10%.
